Like-named read-outs stand apart in the source and are kept apart here.
Columns and labels:
[1] = Measurement of ε365 and ε365/ε313 of compound β (molar absorption coefficients in acetonitrile); format: physicochemical; parameters: key to ε365 of Compound β: molar absorption coefficient at 365 nm in (cm·mol/L)^−1; settings: for ε365/ε313: compound β
From the text: (Measurement and Evaluation of ε365 and ε365/ε313)
A molar absorption coefficient ((cm·mol/L)^−1, “ε365”) of the compound β at 365 nm and a molar absorption coefficient ((cm·mol/L)^−1, “ε313”) of the compound β at 313 nm were obtained, and a value (ε365/ε313) obtained by divided ε365 by ε313 was obtained.
The ε365 and ε313 of the compound β are molar absorption coefficients measured by dissolving the compound β in acetonitrile. In a case where the compound β was insoluble in acetonitrile, a solvent for dissolving the compound β may be appropriately changed.

[2] = Measurement of pKa of compound β in ground state (acid titration, 0.1 N HCl, methanol/water); settings: for pKa: methanol/water mixture
[3] = molar absorption coefficient at 365 nm
[4] = molar absorption coefficient at 365 nm in acetonitrile
[5] = molar absorption coefficient at 365 nm, compound β alone
[6] = molar absorption coefficient at 365 nm, in acetonitrile
[7] = pKa of Compound β in ground state
[8] = pKa of Compound β in ground state, compound β alone
[9] = pKa of Compound β in ground state, compound β, ground state
[10] = pKa of Compound β in ground state, ground state
[11] = pKa in ground state, compound β, pKa of the conjugate acid for nitrogen-containing aromatic compounds
[12] = compound β, pKa of the conjugate acid for nitrogen-containing aromatic compounds

With `Cc1cc(C)c2c(C)cc(C)nc2c1` [2,4,5,7-Tetramethylquinoline] the “ε365 of Compound β” value [1] was under 10, the “ε365 of Compound β” value ([1]; compound β alone) was under 10 and the “ε365 of Compound β” value [1, 3] was under 10. For the same molecule, the “ε365 of Compound β” value [1, 4] was <10 (cm·mol/L)^−1, the “ε365 of Compound β” value [1, 5] was under 10 and the “ε365 of Compound β” value [1, 6] was <10 (cm·mol/L)^−1. For the same molecule, the pKa [2, 7] was 6.23, the pKa [2, 8] was 6.23 and the pKa [2, 9] was 6.23. The pKa [2, 10] was 6.23.
Work on `CC(=O)c1ccncc1` [4-Acetylpyridine] yielded a ε365/ε313 ([1]; in acetonitrile) of under 1 and a pKa [2, 11] of 3.1.
`O=C(c1ccccc1)c1ccncc1` [4-Benzoylpyridine] gave a ε365/ε313 ([1]; in acetonitrile) of under 1 and a pKa [2, 11] of 2.9.
`c1cnc2c(c1)CCCC2` [5,6,7,8-Tetrahydroquinoline] gave a ε365/ε313 ([1]; in acetonitrile) of under 1 and a pKa [2, 11] of 5.9.
With `CCCCc1ncc(C)c2ccccc12` [Example 1-n-Butyl-4-methylisoquinoline, 1-n-Butyl-4-methylisoquinoline] the “ε365 of Compound β” value [1] was under 10, the “ε365 of Compound β” value ([1]; compound β alone) was under 10 and the “ε365 of Compound β” value [1, 3] was under 10. The “ε365 of Compound β” value [1, 4] was <10 (cm·mol/L)^−1, the “ε365 of Compound β” value [1, 5] was under 10 and the “ε365 of Compound β” value [1, 6] was <10 (cm·mol/L)^−1. The pKa [2, 7] was 5.9, the pKa [2, 8] was 5.9 and the pKa [2, 9] was 5.9. The pKa [2, 10] was 5.9.
In the case of `CCCCc1nccc2ccccc12` [Example 1-n-Butylisoquinoline, 1-n-Butylisoquinoline], the “ε365 of Compound β” value [1] is reported as under 10, the “ε365 of Compound β” value ([1]; compound β alone) is reported as under 10 and the “ε365 of Compound β” value [1, 3] is reported as under 10. The “ε365 of Compound β” value [1, 4] was <10 (cm·mol/L)^−1, the “ε365 of Compound β” value [1, 5] was under 10 and the “ε365 of Compound β” value [1, 6] was <10 (cm·mol/L)^−1. It also gave a pKa [2, 7] of 5.27, a pKa [2, 8] of 5.27 and a pKa [2, 9] of 5.27. The pKa [2, 10] was 5.27.
For `Clc1ccccn1` [Example 2-Chloropyridine, 2-Chloropyridine], the “ε365 of Compound β” value [1] was under 10, the “ε365 of Compound β” value ([1]; compound β alone) was under 10 and the “ε365 of Compound β” value [1, 3] was under 10. The “ε365 of Compound β” value [1, 4] was <10 (cm·mol/L)^−1, the “ε365 of Compound β” value [1, 5] was under 10 and the “ε365 of Compound β” value [1, 6] was <10 (cm·mol/L)^−1. The “pKa of Compound β in ground state” value [2] was 0.70, the “pKa of Compound β in ground state” value ([2]; compound β alone) was 0.70 and the “pKa of Compound β in ground state” value ([2]; compound β, ground state) was 0.70. The “pKa of Compound β in ground state” value ([2]; ground state) was 0.70.
In the case of `COc1cc(C)nc2ccccc12` [Example 2-Methyl-4-methoxyquinoline, 2-Methyl-4-methoxyquinoline], the “ε365 of Compound β” value [1] is reported as under 10, the “ε365 of Compound β” value ([1]; compound β alone) is reported as under 10 and the “ε365 of Compound β” value [1, 3] is reported as under 10. For the same molecule, the “ε365 of Compound β” value [1, 4] was <10 (cm·mol/L)^−1, the “ε365 of Compound β” value [1, 5] was under 10 and the “ε365 of Compound β” value [1, 6] was <10 (cm·mol/L)^−1. It also gave a pKa [2, 7] of 6.51, a pKa [2, 8] of 6.51 and a pKa [2, 9] of 6.51. For the same molecule, the pKa [2, 10] was 6.51.
With `Nc1ccncc1` [Example 4-Aminopyridine, 4-Aminopyridine] the “ε365 of Compound β” value [1] was under 100, the “ε365 of Compound β” value ([1]; compound β alone) was under 100 and the “ε365 of Compound β” value [1, 3] was under 100. The “ε365 of Compound β” value [1, 4] was <100 (cm·mol/L)^−1, the “ε365 of Compound β” value [1, 5] was under 100 and the “ε365 of Compound β” value [1, 6] was <100 (cm·mol/L)^−1. For the same molecule, the pKa [2, 7] was 9.2, the pKa [2, 8] was 9.2 and the pKa [2, 9] was 9.2. It also gave a pKa [2, 10] of 9.2.
For `Cc1c2ccccc2nc2ccccc12` [Example 9-Methylacridine, 9-Methylacridine], the “ε365 of Compound β” value [1] was 6300, the “ε365 of Compound β” value ([1]; compound β alone) was 6300 and the “ε365 of Compound β” value [1, 3] was 6300. The “ε365 of Compound β” value [1, 4] was 6300 (cm·mol/L)^−1, the “ε365 of Compound β” value [1, 5] was 6300 and the “ε365 of Compound β” value [1, 6] was 6300 (cm·mol/L)^−1. The pKa [2, 7] was 5.4, the pKa [2, 8] was 5.4 and the pKa [2, 9] was 5.4. For the same molecule, the pKa [2, 10] was 5.4.
For `c1ccc(-c2c3ccccc3nc3ccccc23)cc1` [Example 9-Phenylacridine, 9-Phenylacridine], the “ε365 of Compound β” value [1, 5] was over 1000, the pKa [2, 7] was 4.04 and the pKa [2, 8] was 4.04. The pKa [2, 9] was 4.04 and the pKa [2, 10] was 4.04.
For `c1ccc2cnccc2c1` [Example B1, isoquinoline], the “ε365 of Compound β” value [1] was under 10, the “ε365 of Compound β” value ([1]; compound β alone) was under 10 and the ε365/ε313 ([1]; in acetonitrile) was under 1. The “ε365 of Compound β” value [1, 3] was under 10, the “ε365 of Compound β” value [1, 4] was <10 (cm·mol/L)^−1 and the “ε365 of Compound β” value [1, 5] was under 10. For the same molecule, the “ε365 of Compound β” value [1, 6] was <10 (cm·mol/L)^−1, the “pKa in ground state” value [2, 12] was 4.69 and the pKa [2, 11] was 4.7. For the same molecule, the pKa [2, 7] was 4.69, the pKa [2, 8] was 4.69 and the pKa [2, 9] was 4.69. It also gave a pKa [2, 10] of 4.69.
In the case of `c1ccc2ncccc2c1` [Example B2, quinoline], the “ε365 of Compound β” value [1] is reported as under 10, the “ε365 of Compound β” value ([1]; compound β alone) is reported as under 10 and the ε365/ε313 ([1]; in acetonitrile) is reported as under 1. The “ε365 of Compound β” value [1, 3] was under 10, the “ε365 of Compound β” value [1, 4] was <10 (cm·mol/L)^−1 and the “ε365 of Compound β” value [1, 5] was under 10. For the same molecule, the “ε365 of Compound β” value [1, 6] was <10 (cm·mol/L)^−1, the “pKa in ground state” value [2, 12] was 4.15 and the pKa [2, 11] was 4.2. The pKa [2, 7] was 4.15, the pKa [2, 8] was 4.15 and the pKa [2, 9] was 4.15. It also gave a pKa [2, 10] of 4.15.
Molecule `CCCCc1nccc2ccccc12` [Example B4, 1-n-butylisoquinoline] has a pKa [2, 11] of 5.27.
`CCCCc1ncc(C)c2ccccc12` [Example B5, 1-n-butyl-4-methylisoquinoline] showed a pKa [2, 11] of 5.9.
`Cc1cc(C)c2c(C)cc(C)nc2c1` [Example B7, 2,4,5,7-tetramethylquinoline] showed a pKa [2, 11] of 6.23.
`COc1cc(C)nc2ccccc12` [Example B8, 2-methyl-4-methoxyquinoline] showed a pKa [2, 11] of 6.51.
`Cc1c2ccccc2nc2ccccc12` [Example B9, 9-methylacridine] showed a pKa [2, 11] of 5.4.
For `c1ccc(-c2c3ccccc3nc3ccccc23)cc1` [Example B10, 9-phenylacridine], the pKa [2, 11] was 4.04.
For `c1ccncc1` [Example B11, pyridine], the “ε365 of Compound β” value [1] was under 10, the “ε365 of Compound β” value ([1]; compound β alone) was under 10 and the “ε365 of Compound β” value [1, 3] was under 10. The “ε365 of Compound β” value [1, 4] was <10 (cm·mol/L)^−1, the “ε365 of Compound β” value [1, 5] was under 10 and the “ε365 of Compound β” value [1, 6] was <10 (cm·mol/L)^−1.
Molecule `Clc1ccccn1` [Example B14, 2-chloropyridine] has a pKa [2] of 0.7.
